Laboratory results taken from US4866083A, “2-t-butyl-3 alkyl-5-(m-hydroxyphenyl)-1,3-oxazolidines having mydriatic effect” (University of Iowa Research Foundation, priority 1987, dated 1989).

What was measured:
[1] = topical ocular; some individuals; cited from earlier work
[2] = Stability in aqueous solutions; assay type: physicochemical
[3] = Distribution coefficient (log DC); assay type: physicochemical; details: read-out: log DC (Dist. Coeff.)
[4] = system: rabbit eye; experiment: Mydriatic experiments, pupil diameter in the rabbit eye; assay type: in vivo, New Zealand Rabbit
Method: The right eye of a normal adult New Zealand Rabbit (3-4 months) was used to measure mydriasis. A flood of diffuse light was placed at a fixed distance from the rabbit eye so that the initial pupil diameter prior to administering eye drops was about 3 mm. Changes in pupil diameter were measured from photographs taken with a 35 mm single lens reflex camera equipped with a close-up lens. Pupil diameters were measured at time 0 through about 5 hours. A dosing volume of 10 μl was administered to the right eye of a group of eight rabbits. A period of at least three days was allowed between instillations of each formulation.

[5] = Hydrolysis in buffered aqueous solution at 35° C.; assay type: physicochemical; details: pH's between 1-7.5
Method: A series of experiments were conducted at 35° C. to determine the apparent first order hydrolysis rate constant for phenylephrine oxazolidine at […]. The progress of hydrolysis of the prodrug was followed by measuring the production of pivaldehyde subsequently trapped with thiosemicarbazide (pH<4) or semicarbazide (pH 4-7.5). The resulting formation of the carbazone derivative was followed using Uv spectroscopy at 235 and 265 nm (the spectroscopy was a 8450A UV/VIS Hewlett-Packard, Chicago, Ill.). The prodrug was dissolved in either pH 1, 2, 3, 4, 5, 6, 7 or 7.5 buffered aqueous solutions. The buffers used were hydrochloric acid, formate, acetate and phosphate solutions. The carbonyl trapping reagent was included in the buffer solutions at a concentration of 3.1×10(-3) M. The initial concentration of oxazolidine prodrug was about 1.8×10(-4) M. A volume of 3 ml was used for the reaction which was monitored directly in the absorbance cell. […] The concentration of carbazone was calculated by referring to a standard curve.

Structure (SMILES)	side effects [1]	stability in aqueous solutions [2]	logD [3]	potency relative to the aqueous solution of phenylephrine HCl ([4]; based upon pupillary diameter, versus 10% viscous preparation of phenylephrine HCl, FIG. 2)	mydriasis compared with phenylephrine HCl ([4]; molar equivalent concentration to 10% oil suspension of phenylephrine HCl, 10 μl to right eye, FIG. 1)	half-life [5] [min]
CNC[C@H](O)c1cccc(O)c1 [phenylephrine, 3-hydroxy-α-[(methylamino)methyl]-benzyl alcohol]	hypertension, syncope, and even in some cases to myocardial infarction, leading to death	–	–	–	–	–
CN1C[C@@H](c2cccc(O)c2)OC1C(C)(C)C (single isomer, unassigned) [phenylephrine oxazolidine, 2-t-butyl-3-methyl-5-(m-hydroxyphenyl)-1,3-oxazolidine]	–	not particularly stable in aqueous solutions	1.383 ± 0.013	approximately 10 times	significantly greater mydriasis	5 to 12
